Test results taken from the NIST ThermoML archive (doi:10.1021/je8002699).
Several values for one entry are separate records, joined by “and”; a condition that tells them apart may be missing. Equal values may be shown once. ± gives the expanded uncertainty stated by the source.

Columns and labels:
[1] = for mass density / viscosity / speed of sound: Liquid
[2] = refractive index (Na D-line) (dimensionless); conditions: 101.33 kPa, Liquid
[3] = xn = mol fraction of the nth substance listed; conditions: x2 = 0; for mass density / speed of sound / viscosity: 101 kPa, Liquid
[4] = refractive index (Na D-line) (dimensionless); xn = mol fraction of the nth substance listed; conditions: 101 kPa, Liquid, x2 = 0

## CC(=O)CC(C)(C)O [4-hydroxy-4-methylpentan-2-one]
[1]; 293.15 K, 101 kPa
  mass density: 938 ± 7 kg/m3
  viscosity: 2.89 ± 0.13 mPa·s
[1]; 303.15 K
  surface tension liquid-gas: 29.44 ± 0.85 mN/m
[1]; 303.15 K, 101 kPa
  mass density: 936 ± 7.8 kg/m3
  speed of sound: 1256 ± 6 m/s
  viscosity: 2.89 ± 0.13 mPa·s
[1]; 313.15 K
  surface tension liquid-gas: 28.92 ± 0.84 mN/m
[1]; 313.15 K, 101 kPa
  mass density: 912 ± 8.3 kg/m3
  speed of sound: 1183 ± 5 m/s
  viscosity: 2.791 ± 0.13 mPa·s
[1]; 323.15 K
  surface tension liquid-gas: 28.12 ± 0.82 mN/m and 27.12 ± 0.8 mN/m
[1]; 323.15 K, 101 kPa
  mass density: 901 ± 8.9 kg/m3
  speed of sound: 1121 ± 5 m/s
  viscosity: 2.67 ± 0.12 mPa·s
[2]; 303.15 K
  refractive index: 1.4239 ± 0.005
[2]; 313.15 K
  refractive index: 1.4198 ± 0.005
[2]; 323.15 K
  refractive index: 1.4151 ± 0.005

## CCc1ccccc1 [ethylbenzene]
[1]; 303.15 K
  surface tension liquid-gas: 30.01 ± 0.86 mN/m
[1]; 303.15 K, 101 kPa
  mass density: 867 ± 3.9 kg/m3
  speed of sound: 1335 ± 6 m/s
  viscosity: 0.577 ± 0.047 mPa·s
[1]; 313.15 K
  surface tension liquid-gas: 29.04 ± 0.83 mN/m
[1]; 313.15 K, 101 kPa
  mass density: 842 ± 3.9 kg/m3
  speed of sound: 1289 ± 6 m/s
  viscosity: 0.5914 ± 0.048 mPa·s
[1]; 323.15 K
  surface tension liquid-gas: 28.12 ± 0.81 mN/m
[1]; 323.15 K, 101 kPa
  mass density: 832.1 ± 4.1 kg/m3
  speed of sound: 1204 ± 5 m/s
  viscosity: 0.4841 ± 0.041 mPa·s
[2]; 303.15 K
  refractive index: 1.4985 ± 0.0026
[2]; 313.15 K
  refractive index: 1.4901 ± 0.0026
[2]; 323.15 K
  refractive index: 1.4821 ± 0.0026

## CCc1ccccc1 [ethylbenzene] + CC(=O)CC(C)(C)O
[3]; 303.15 K
  surface tension liquid-gas: 30.01 ± 0.86 mN/m
  mass density: 867 ± 3.9 kg/m3
  speed of sound: 1335 ± 6 m/s
  viscosity: 0.577 ± 0.047 mPa·s
[3]; 313.15 K
  surface tension liquid-gas: 29.04 ± 0.83 mN/m
  mass density: 842 ± 3.9 kg/m3
  speed of sound: 1289 ± 6 m/s
  viscosity: 0.5914 ± 0.048 mPa·s
[3]; 323.15 K
  surface tension liquid-gas: 28.12 ± 0.81 mN/m
  mass density: 832.1 ± 4.1 kg/m3
  speed of sound: 1204 ± 5 m/s
  viscosity: 0.4841 ± 0.041 mPa·s
[4]; 303.15 K
  refractive index: 1.4985 ± 0.0026
[4]; 313.15 K
  refractive index: 1.4901 ± 0.0026
[4]; 323.15 K
  refractive index: 1.4821 ± 0.0026

## O=[N+]([O-])c1ccccc1 [nitrobenzene]
[1]; 303.15 K
  surface tension liquid-gas: 40.9 ± 1.1 mN/m
[1]; 303.15 K, 101 kPa
  mass density: 1200 ± 10 kg/m3
  speed of sound: 1413 ± 6 m/s
  viscosity: 1.617 ± 0.076 mPa·s
[1]; 313.15 K
  surface tension liquid-gas: 38.24 ± 1.1 mN/m
[1]; 313.15 K, 101 kPa
  mass density: 1196 ± 11 kg/m3
  speed of sound: 1318 ± 6 m/s
  viscosity: 1.465 ± 0.069 mPa·s
[1]; 323.15 K
  surface tension liquid-gas: 36.47 ± 1 mN/m
[1]; 323.15 K, 101 kPa
  mass density: 1185 ± 12 kg/m3
  speed of sound: 1221 ± 5 m/s
  viscosity: 1.343 ± 0.064 mPa·s
[2]; 303.15 K
  refractive index: 1.5504 ± 0.005
[2]; 313.15 K
  refractive index: 1.5476 ± 0.005
[2]; 323.15 K
  refractive index: 1.5435 ± 0.005

## O=[N+]([O-])c1ccccc1 [nitrobenzene] + CC(=O)CC(C)(C)O
[3]; 303.15 K
  surface tension liquid-gas: 40.9 ± 1.1 mN/m
  mass density: 1200 ± 10 kg/m3
  speed of sound: 1413 ± 6 m/s
  viscosity: 1.617 ± 0.076 mPa·s
[3]; 313.15 K
  surface tension liquid-gas: 38.24 ± 1.1 mN/m
  mass density: 1196 ± 11 kg/m3
  speed of sound: 1318 ± 6 m/s
  viscosity: 1.465 ± 0.069 mPa·s
[3]; 323.15 K
  surface tension liquid-gas: 36.47 ± 1 mN/m
  mass density: 1185 ± 12 kg/m3
  speed of sound: 1221 ± 5 m/s
  viscosity: 1.343 ± 0.064 mPa·s
[4]; 303.15 K
  refractive index: 1.5504 ± 0.005
[4]; 313.15 K
  refractive index: 1.5476 ± 0.005
[4]; 323.15 K
  refractive index: 1.5435 ± 0.005

## Cc1ccccc1 [toluene]
[1]; 298.15 K, 101.33 kPa, Capillary tube (Ostwald / Ubbelohde) method
  viscosity: 0.555 ± 0.0042 mPa·s
[1]; 298.15 K, 101.33 kPa, Pycnometric method
  mass density: 862.4 ± 1 kg/m3
